Read-outs that look alike come from different tables or passages of the source.
Key:
[1] = Acute toxicity test (Test 7); settings: mouse, in vivo, mortality after seven days, read-out: Acute toxicity: dose up to which no toxicity was shown
Protocol: The test compounds suspended in 0.5% CMC-Na were administered p.o. or injected i.p. to male ddY mice. The acute toxicity was dertermined based on the mortality after seven days.

[2] = system: cholesterol-fed hyperlipidemic rats; assay: Antihyperlipidemic activity in cholesterol-fed hyperlipidemic rats (Test 3); assay type: in vivo, rat (male S.D.)
Protocol: It is administered from once to three times per day. The dose may of course be varied depending upon the age, the weight or the condition of illness of the patient. […] In the following tests, the fractionation of lipoproteins was conducted by a dextran sulfate-MgCl2 precipitation method.
(§1) Cholesterol in serum was measured by means of a cholesterol measuring kit (Cholesterol C-Test Wako, manufactured by Wako Junyaku Co., Ltd.), and cholesterol in HDL was measured by means of NC Hi-Set, manufactured by Nippon Chemiphar Co., Ltd. The quantitative analysis of triglyceride was conducted by means of a triglyceride measuring kit (Triglyceride C-II-Test Wako, manufactured by Wako Junyaku Co., Ltd.).
(§2) Further, the change rate in the following Tables, was calculated by the following equation.
Change rate(%)=(A-B/A)×100 where A is the amount of serum lipids (mg/dl) of the control group, and B is the amount of serum lipids (mg/dl) of the group to which the therapeutic agent was administered.
The antihyperlipidemic activity in cholesterol-fed hyperlipidemic rats
Male S.D. rats weighing 80-90 g (30 days old) were divided into groups of 5 rats each. The test compounds suspended in 0.5% CMC-Na were given to the rats in a daily dose of 0.4 ml per 100 g rat via stomach tube every 10:00 a.m. for 7 or 14 days. Control groups were given an equal volume of the vehicle. […] The total cholesterol, triglyceride and HDL cholesterol in serum were measured. After sacrificed, the livers were excised, washed with physiological saline, blotted on filter paper and weighed. The degree of hepatomegaly was calculated by the following equation.
Degree of hepatomegaly (%)=(D-C/C)×100 where C is the liver weight (g) per 100 g body weight in the control animal, and D is the liver weight (g) per 100 g body weight in the drug treated animal.

[3] = system: Salmonella (TA98, TA100, TA1535 and TA1538); assay: Mutagenicity test, Salmonella (Test 6); settings: up to 5000 μg/Plate, absence or presence of S-9 mix of rat liver
Protocol: The mutagenicity was tested by using Escherichia coli (WP2UVrA) and Salmonella (TA98, TA100, TA1535 and TA1538) in the absence or presence of a drug metabolizing enzymes S-9 mix of rat liver.

[4] = system: emulsion-induced hyperlipidemic rats; assay: Antihyperlipidemic activity in emulsion-induced hyperlipidemic rats (Test 1); assay type: in vivo, rat (male S.D.); settings: 300 mg/kg/day p.o., 3 days
Protocol: The daily dose of the compound of the formula I is from 0.01 to 3.0 g, preferably from 0.1 to 1.5 g, for an adult. It is administered from once to three times per day. The dose may of course be varied depending upon the age, the weight or the condition of illness of the patient. Now, the usefulness of the compound of the formula I as an antiatherosclerotic agent will be shown by tests. In the following tests, the fractionation of lipoproteins was conducted by a dextran sulfate-MgCl2 precipitation method.
as §1, §2
Change rate(%)=(A-B/A)×100
where A is the amount of serum lipids (mg/dl) of the control group, and B is the amount of serum lipids (mg/dl) of the group to which the therapeutic agent was administered.
The antihyperlipidemic activity in emulsion-induced hyperlipidemic rats
Male S.D. rats weighing 80-90 g (4 weeks old) were used. They were divided into groups of 5 to 6 rats each. The test compounds suspended in 0.5% CMC-Na(carboxymethyl cellulose sodium salt) were given to the rats in a daily dose of 4 ml/kg via stomach tube every 10:00 a.m. After 30 min., lipids emulsion having the following composition was orally given to the rats in an amount of 2.5 ml per rat. During the experimental period of 3 days, the rats were fed on a standard commercial diet and water ad libitum. […] The total cholesterol and triglyceride, and HDL cholesterol were measured.

## CN1C(=S)SC(c2ccccc2)N(C)C1c1ccccc1 (stereo not shown) [Compound of the formula I, 3,5-dimethyl-4,6-diphenyl-tetrahydro-2H-1,3,5-thiadiazine-2-thione]
[1]; ip, abdominal (i.p.) administration
  NOAEL at 168 h: ≥ 4000 mg/kg
[1]; oral administration
  NOAEL at 168 h: ≥ 8000 mg/kg
[2]; 7 or 14 days
  Hepatomegaly (in words): no hepatomegaly
[2]; 7th day
  Lipid reducing and HDL-cholesterol increasing activity (in words): not distinct very much
[2]; 7th day, 10 mg/kg/day p.o.
  Change rate, HDL-Chol: -12.7%
  Change rate, TG: -13.8%
  Change rate, Total-Chol: -3.3%
  Degree of hepatomegaly: +4.0%
  Serum lipid, HDL-Chol: 15.8 mg/dL
  Serum lipid, TG: 105.9 mg/dL
  Serum lipid, Total-Chol: 421.7 mg/dL
[2]; 7th day, 50 mg/kg/day p.o.
  Change rate, HDL-Chol: 0%
  Change rate, TG: -15.3%
  Change rate, Total-Chol: -33.6%
  Degree of hepatomegaly: +2.0%
  Serum lipid, HDL-Chol: 18.1 mg/dL
  Serum lipid, TG: 104.0 mg/dL
  Serum lipid, Total-Chol: 289.8 mg/dL
[2]; 7th day, 100 mg/kg/day p.o.
  Change rate, HDL-Chol: +6.1%
  Change rate, TG: -24.5%
  Change rate, Total-Chol: -32.4%
  Serum lipid, HDL-Chol: 19.2 mg/dL
  Serum lipid, TG: 92.7 mg/dL
  Serum lipid, Total-Chol: 294.7 mg/dL
[2]; 7th day, 150 mg/kg/day p.o.
  Change rate, HDL-Chol: -4.4%
  Change rate, TG: -46.1%
  Change rate, Total-Chol: -11.7%
  Degree of hepatomegaly: +12.0%
  Serum lipid, HDL-Chol: 17.3 mg/dL
  Serum lipid, TG: 66.2 mg/dL
  Serum lipid, Total-Chol: 385 mg/dL
[2]; 14th day
  Lipid reducing and HDL-cholesterol increasing activity (in words): strong lipid reducing activity and HDL-cholesterol increasing activity
[2]; 14th day, 10 mg/kg/day p.o.
  Change rate, HDL-Chol: +129.9%
  Change rate, TG: -44.6%
  Change rate, Total-Chol: -42.5%
  Degree of hepatomegaly: +5.3%
  Serum lipid, HDL-Chol: 20.0 mg/dL
  Serum lipid, TG: 92.5 mg/dL
  Serum lipid, Total-Chol: 336.5 mg/dL
[2]; 14th day, 50 mg/kg/day p.o.
  Change rate, HDL-Chol: +135.6%
  Change rate, TG: -47.5%
  Change rate, Total-Chol: -33.5%
  Degree of hepatomegaly: +1.8%
  Serum lipid, HDL-Chol: 20.5 mg/dL
  Serum lipid, TG: 87.7 mg/dL
  Serum lipid, Total-Chol: 389.2 mg/dL
[2]; 14th day, 100 mg/kg/day p.o.
  Change rate, HDL-Chol: +186.2%
  Change rate, TG: -44.8%
  Change rate, Total-Chol: -53.7%
  Degree of hepatomegaly: +10.5%
  Serum lipid, HDL-Chol: 24.9 mg/dL
  Serum lipid, TG: 92.2 mg/dL
  Serum lipid, Total-Chol: 271.3 mg/dL
[2]; 14th day, 150 mg/kg/day p.o.
  Change rate, HDL-Chol: +147.1%
  Change rate, TG: -53.8%
  Change rate, Total-Chol: -60.9%
  Degree of hepatomegaly: +5.3%
  Serum lipid, HDL-Chol: 21.5 mg/dL
  Serum lipid, TG: 77.1 mg/dL
  Serum lipid, Total-Chol: 228.6 mg/dL
[3]
  Mutagenicity: did not show any mutagenicity
[4]
  Serum lipid, HDL-Chol: 22.1 mg/dL
  Serum lipid, TG: 97.4 mg/dL
  Serum lipid, Total Chol: 145 mg/dL
[4]; vs control
  Change rate, HDL-Chol: +80.6%
  Change rate, TG: -36%
  Change rate, Total Chol: -45.0%

— patent US4624950A, “Method for treating atherosclerosis hyperlipidema, lipid deposition on arterial walls, or raising the ratio of high density lipoprotein cholesterol to total cholesterol in serum” (Nissan Chemical Industries Ltd., priority 1983, dated 1986)
